According to patent publication US6355677B1, “Adrenoleukodystrophy treatments and drug screening” (The Johns Hopkins University, priority 1998, dated 2002):

Key:
[1] = test system: human primary fibroblasts; test: Peroxisome counting by anti-SKL (PTS1) immunofluorescence; assay type: cell-based; settings: 5 mM
From the text: Peroxisomes were made visible with immunofluorescence using a polyclonal antibody to the C-terminal tripeptide (SKL) peroxisome targeting signal 1 (PTS1), which is present in most peroxisomal matrix proteins. […] We counted the peroxisomes after 10 days of treatment (Table 3). Slides were scanned visually and cells categorized as having low, medium or high numbers of peroxisomes. For each cell line, the number of peroxisomes is the mean of three ‘low’, four ‘medium’ and three ‘high’ cells (Table 3). There was no difference between control cells and X-ALD cells in either the number of peroxisomes per cell or in the response to 4-PBA. […] The 2.4-fold increase in the number of peroxisomes per cell was statistically significant (P<0.0000001, two-tailed Student's t-test). Peroxisome numbers obtained with an antibody against a peroxisomal membrane protein (Pex14p) gave similar results (data not shown).
The anti-SKL (PTSI) antibody was a gift from S. Gould and the anti-Pex11α antibody was a gift from S. Mihalik. To count peroxisomes, we photographed immunofluorescence-stained cells after focusing on the cell nucleus, and determined the peroxisome number per cell with the aid of a colon counter after projecting the slides to enlarge the image.

ALDP = ALDP stabilization, immunofluorescence with anti-ALDP antibody; assay type: cell-based, human; settings: X-ALD fibroblasts with destabilizing missense mutations (A626T, R660W), 5 mM for up to 10 days
[2] = test system: human primary fibroblasts; test: Toxicity in cultured cells; assay type: cell-based; settings: data not shown
From the text: (§1) The genotypes of the X-ALD patients included midssense, nonsense, ftame shift and deletion mutations and all of the main clinical phenotypes.

[3] = test system: mouse primary fibroblasts; test: Toxicity in cultured cells; assay type: cell-based; settings: data not shown
From the text: as §1

Question: What does the source list for O=C(O)CCCc1ccccc1 [4-PBA, 4-Phenyl butyrate]?
Answer: Increase in number of peroxisomes per cell ([1]; 10 days): 2.4 fold; Peroxisomes per cell after exposure ([1]; 10 days, five X-ALD and four control cell lines combined, 416±27 before exposure): 1014±108 peroxisomes per cell; Increase in peroxisome number ([1]; human X-ALD primary fibroblasts, 8 days): approximately twofold; Detectable ALDP after treatment (ALDP): did not result in detectable levels of ALDP; Toxic concentration [2]: exceeding 7.5 mM; Toxic concentration [3]: exceeding 7.5 mM
